Key:
S. mansoni [1] = assay: Curative efficacy against schistosome infection in mice; assay type: in vivo, Schistosoma mansoni; conditions: one week
Method: Assays testing the curative efficacy of compounds against schistosome infection were performed on mice 6 weeks after exposure to cerceria. Drugs were dosed as follows. Ergotamine (95 mg/kg) was solubilized in 50 μL DMSO and diluted in 200 μL trappsol-saline and delivered by intraperitoneal injection twice a day for one week. Praziquantel (50 mg/kg) was similarly solubilized and injected intraperitoneally once a day for one week. The negative control cohort was given twice daily injections of DMSO (50 μL) added to 200 μL trappsol-saline solution. Mice were weighed and euthanized at 49 days post infection. Worms were harvested and counted as in the hepatic shift assay. Spleen and livers were weighed, and a segment of intestine was excised from the most distal region of the rectum to 10 cm above the cecum. The small and large intestines were separated by cutting immediately above and below the cecum. Each was cut lengthwise to expose the lumen and thoroughly washed in NaCl (1.2%) to remove excrement. Intestines were laid flat with the intestinal mucosa facing upwards and clamped between two glass plates to allow visual inspection of eggs using a stereo microscope.
Mice were injected with vehicle control (dmso), the current frontline anthelmintic (praziquantel) or ergotamine twice daily for one week at starting 42 days post infection.
All animals were sacrificed 49 days post infection, and worms were harvested by dissection of the mesenteric vasculature, portal vein and liver. […] Schistosomes lay large numbers of eggs within the host mesenteric system, and these progress through stages of development over approximately 5 days which can be scored looking at samples of the intestinal mucosa (Pellegrino et al., 1965). Therefore, it is possible to visually determine whether drug treatment has arrested parasite egg laying by observing a lack of developing eggs. Sections of both the large and small intestines were examined and eggs were manually counted and scored according to developmental stage (representative stages of embryo development shown in FIG. 20H-I, top).

Sm.5HTR [2] = biological target: Sm.5HTR (Schistosoma mansoni, UniProt G4V5G4); assay type: cell-based
Method: (§1) HEK293 cells (ATCC CRL-1573.3) were cultured in DMEM supplemented with 10% fetal bovine serum (FBS), penicillin (100 units/mL), streptomycin (100 μg/mL), and L-glutamine (290 μg/mL). Cells were transiently transfected (ViaFect, Promega) as per the manufacturer's protocol at a density of 2×10^6 cells per T-25 cell-culture flask. Cells were transfected with plasmids encoding GloSensor (Promega) and either Sm.5HTR, (Smp_126730, GenBank accession number KF444051.1) or Sm.5HTRL (KX150867), both GPCRs being codon optimized for mammalian expression, or Hs.5HT7a (GenBank accession number NM_000872.4, R&D Systems) subcloned into pCS2(−). Cell culture reagents were from Invitrogen. Epitope tagged constructs were used to verify expression, and untagged constructs used for all luminescence assays.
(§2) For assays performed on adherent cells, HEK-293 cells were transferred one day post transfection to 96 well, solid white plates (Corning, cat #3917) coated with 0.01% poly-L-lysine (Sigma Aldrich) at a density of 5×10^4 cells/well in DMEM supplemented with 1% dialyzed FBS (Gibco). After overnight culture (37° C./5% CO2), media was decanted and replaced with 100 μL/well HBSS supplemented with 0.1% BSA, 20 mM HEPES (pH 7.4) and GloSensor™ reagent. Plates were allowed to equilibrate at room temperature for two hours prior to performing luminescence assays (GloMax-Multi Detection System plate reader, Promega). Conditions for individual assays were described as per figure legends. The standard assay to detect changes in cAMP utilized the F22 sensor in media supplemented with IBMX (200 μM). Ligands were added at a concentration of 20× per well for experiments (i.e., 5 μl of drug solution added to 100 μL of cells). […] For the resazurin reduction assay for cellular viability, cells were incubated with resazurin (final concentration, 10 μM) and tested ligands with fluorescence measurements (560 nm excitation/590 nm emission) made at 1.5 hours intervals.
(§3) The protocol for screening is shown schematically in FIG. 5A. HEK293 cells transiently transfected with either the human 5HT7 receptor (Hs.5HT7R) or the schistosome receptor (Sm.5HTR) were exposed to test ligands in a 96-well plate format. […] Luminescence was then read at a fixed time point (t=60 minutes, FIG. 5A). Hits were assigned as compounds that evoked a ≥50% decrease in luminescence output at the fixed time sampling point (FIG. 5B).

S. mansoni [3] = assay: Hepatic shift assay in infected mice; assay type: in vivo, Schistosoma mansoni; conditions: intraperitoneal, ergotamine 95, praziquantel 100, methylergometrine 50, lisuride 10, dihydroergotoxine 60 mg/kg, euthanized three hours later
Method: Female Swiss Webster mice were exposed to 200 S. mansoni cerceria (NMRI strain) at between 4-6 weeks old. For hepatic shift assays, infections were allowed to mature to 7 weeks, at which point mice were given test compounds by intraperitoneal injection and euthanized […]. Compounds were solubilized in 50 μL DMSO, and diluted in 200 μL 5% w/v trappsol (Cyclodextrin Technologies Development, THPB-p-31 g)+saline (NaCl 0.9%) solution. Immediately after being euthanized, mice were dissected to remove the liver from the portal vein, and the number of worms recovered from the portal vein, mesenteries and liver was recorded for each mouse.
Several experiments using a murine model of schistosomiasis were carried out in order to test the anthelmintic efficacy of Sm.5HTR ligands in vivo. First, the acute effect of drugs were assessed using a “heptic-shift” assay; mature parasites normally reside within the mesenteric vasculature, and upon exposure to anthelmintics they dislodge and are swept to the liver^12,13 where they may be cleared from the host^14 (FIG. 20B-F).
Given that the current anthelmintic therapy, praziquantel, disrupts worms and results in a rapid shift from the mesenteric vasculature to the liver (Melhorn et al., 1981) (FIG. 20B-F), it was hypothesized that Sm.5HTR ligands that disrupt parasite movement would cause a similar hepatic shift. Compounds were delivered by intraperitoneal injection and mice were euthanized three hours later in order to quantify the number of worms found in the mesentaries, portal vein or liver.

Sm.5HTR [4] = biological target: Sm.5HTR (Schistosoma mansoni, UniProt A0A173FEI8); assay: cell-based; conditions: HEK293; agonist read, 45 minutes; read-out: Sm.5HTR Emax
Method: HEK293 cells (ATCC CRL-1573.3) were cultured in growth media consisting of DMEM supplemented with GlutaMAX (Gibco cat #10566016)+10% heat inactivated fetal bovine serum and penicillin-streptomycin (100 units/mL, ThermoFisher). Stable cell lines for the pGloSensor-22F cAMP Plasmid (Promega) and schistosome 5HTRs in pcDNA3.1(−) were selected with hygromycin (200 μg/mL) and G418 (400 μg/mL). The correct identity of each stably expressed sequence was verified by isolating total RNA from each stable line (TRIzol Reagent, Ambion) and amplifying the sequence of interest with gene specific primers flanking the 5′ and 3′ regions of the cds (SuperScript® III One-Step RT-PCR System, Invitrogen). PCR products were ligated into a TA cloning vector (pGEM-T Easy, Promega) and sequenced.
HEK293 lines stably expressing both the 22F cAMP sensor and Sm.5HTR were cultured in growth media supplemented with 10% dialyzed FRS. For cAMP assays in 96 well format, cells cultured in T-75 flasks were trypsinized (TrypLE Express, Gibco) and plated in solid white 96 well plates (Costar cat #3917) the day prior to assay at a density of 2.5×10^4 cells/well. The following day media was removed and replaced with assay buffer consisting of HBSS buffered with HEPES (20 mM, pH 7.4)+BSA (0.1% w/v) and D-luciferin sodium salt (1 mg/mL, Gold Biotechnology). Plates were equilibrated at room temperature for 1 hour, at which point 3-Isobutyl-1-methylxanthine (IBMX 200 μM, Sigma Aldrich) was added. Plates were equilibrated a further 30 minutes prior to test compound addition. […] Readings performed in 384 well format were modified so that cells were assayed in suspension. Cells were grown to 70% confluence in T-75 flasks, trypsinized and pelleted (300 RCF×5 minutes). Media was removed and cells were resuspended in 25 mL assay buffer supplemented with IBMX (200 μM). A 96 channel semi-automated pipet (Eppendorf epMotion 96) delivered 55 μL of cell suspension per well (5000 cells/well) into solid white 384 plates (Corning 3574).

[5] = test system: S. mansoni schistosomules; assay: Schistosomule contractility assay; assay type: cell-based; conditions: Schistosoma mansoni, read-out: IC50, inhibition of 5-HT evoked contractions
Method: FIGS. 14A-14F. […] Effects of selected ligands on schistosomules. […] A contractile cycle is defined when a deviation of ≥20% of the average body length (dashed lines) occurs.
Biomphalaria glabrata (M-line) snails exposed to Schistosoma mansoni miracidia (Strain PR-1) were obtained from BEI Resources (Cat. number NR-21961) and cercaria were shed following exposure to light (1.5 hours). Cercaria were manually transformed into schistosomula by vortexing (3×45 seconds, each separated by 3 minutes on ice) and tails were removed by gradient centrifugation (24 mL Percoll, 4 mL 10×EMEM, 1.5 ml penicillin-streptomycin, 1 mL of 1M HEPES in 0.85% NaCl, 9.5 ml distilled water) at 500 g/15 minutes at 4° C. Supernatant containing tails was discarded, and schistosomules were resuspended in Basch media and incubated (37° C., 5% CO2) overnight before conducting mobility assays. For contractility experiments, somules were incubated in 5-HT free Basch media to resolve a basal contractility rate. […] Schistosomules were incubated in 24 well plates (about 200 schistosomules/0.5 mL media per well) for 30 minutes (37° C./5% CO2) prior to acquiring videos of schistosome movement (1 minute recordings/well) using a Nikon Coolpix 5700 camera affixed to a Nikon Eclipse TS100 microscope (10× objective). The WrmTrck plugin for ImageJ was used to quantify worm mobility (El-Shehabi et al., 2012). Briefly, the major axis of each schistosomule body length was extracted from the raw output of WrmTrck and an average length was determined for the duration of the recording. Contractions were quantified by determining the number of episodes during which the worm body length deviated from the average by over 20%. S. mansoni protocols were approved by the Iowa State University Institutional Biosafety Committee.

Sm.5HTRL = Sm.5HTRL (Schistosoma mansoni, UniProt A0A173FEI8); assay: GloSensor cAMP assay, HEK293 cells transiently transfected with Sm.5HTRL; assay type: cell-based; conditions: antagonists 10 μM; 5-HT EC80 dose 0.8 μM (FIG. 8)
Method: as §1, §2

Hs.5HT7R = biological target: T1, Hs.5HT7R (Homo sapiens, UniProt P34969); assay: GloSensor cAMP assay, HEK293 cells transiently transfected with Hs.5HT7R; assay type: cell-based
T1 construct: host or cells: HEK293 (ATCC CRL-1573.3), transient, pCS2(−), co-transfected with GloSensor
Method: as §1, §2, §3

adult schistosomes = assay: Adult schistosome mobility assay (Example 1); assay type: cell-based, Schistosoma mansoni

Sm.5HTR (Schistosoma mansoni, UniProt G4V5G4), sequence (G4V5G4 entry or part of it): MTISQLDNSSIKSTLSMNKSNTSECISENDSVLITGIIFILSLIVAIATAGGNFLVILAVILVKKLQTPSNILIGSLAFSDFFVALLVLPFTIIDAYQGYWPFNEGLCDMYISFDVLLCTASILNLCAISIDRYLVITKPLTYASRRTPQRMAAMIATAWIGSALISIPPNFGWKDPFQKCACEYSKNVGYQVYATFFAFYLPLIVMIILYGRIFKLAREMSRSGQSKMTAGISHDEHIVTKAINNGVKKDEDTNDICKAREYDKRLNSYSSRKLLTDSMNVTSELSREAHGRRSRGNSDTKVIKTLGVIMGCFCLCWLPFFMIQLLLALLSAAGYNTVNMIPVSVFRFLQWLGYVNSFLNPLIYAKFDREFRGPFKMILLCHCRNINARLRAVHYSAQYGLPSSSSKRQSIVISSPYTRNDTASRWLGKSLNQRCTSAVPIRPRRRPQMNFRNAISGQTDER
T1 sequence (P34969 1-445 isoform P34969-2): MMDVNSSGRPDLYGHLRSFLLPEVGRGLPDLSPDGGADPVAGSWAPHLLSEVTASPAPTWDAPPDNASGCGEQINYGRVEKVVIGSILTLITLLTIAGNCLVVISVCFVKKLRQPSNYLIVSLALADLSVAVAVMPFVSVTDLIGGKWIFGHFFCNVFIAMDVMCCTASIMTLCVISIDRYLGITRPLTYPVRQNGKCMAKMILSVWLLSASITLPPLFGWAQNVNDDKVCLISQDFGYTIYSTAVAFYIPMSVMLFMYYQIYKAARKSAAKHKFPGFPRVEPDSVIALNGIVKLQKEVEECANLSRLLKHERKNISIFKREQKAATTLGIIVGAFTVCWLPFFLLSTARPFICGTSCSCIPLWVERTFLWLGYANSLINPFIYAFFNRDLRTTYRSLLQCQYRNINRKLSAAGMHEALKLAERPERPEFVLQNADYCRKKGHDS
Sm.5HTR (Schistosoma mansoni, UniProt A0A173FEI8), sequence (A0A173FEI8 entry or part of it): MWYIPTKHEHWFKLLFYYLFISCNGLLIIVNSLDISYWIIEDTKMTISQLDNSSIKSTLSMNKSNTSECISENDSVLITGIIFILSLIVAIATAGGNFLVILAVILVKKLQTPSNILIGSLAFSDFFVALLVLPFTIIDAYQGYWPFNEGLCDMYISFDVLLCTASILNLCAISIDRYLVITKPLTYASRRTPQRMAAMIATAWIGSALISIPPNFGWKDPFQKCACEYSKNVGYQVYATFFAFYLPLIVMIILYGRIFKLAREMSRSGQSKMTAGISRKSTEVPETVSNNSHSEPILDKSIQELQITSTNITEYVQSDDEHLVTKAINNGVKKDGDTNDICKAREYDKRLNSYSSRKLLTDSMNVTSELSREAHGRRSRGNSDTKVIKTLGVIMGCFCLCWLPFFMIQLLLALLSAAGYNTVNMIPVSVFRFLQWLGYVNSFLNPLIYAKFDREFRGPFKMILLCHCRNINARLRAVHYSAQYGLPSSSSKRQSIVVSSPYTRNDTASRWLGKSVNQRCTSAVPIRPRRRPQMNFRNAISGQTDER
Sm.5HTRL, sequence (A0A173FEI8 entry or part of it): as above

O=C(C1CCCCC1)N1CC(=O)N2CCc3ccccc3C2C1 (stereo not shown) [PZQ, praziquantel]
protection from liver and spleen enlargement (S. mansoni [1]; infected mice, praziquantel 50 mg/kg i.p. once a day): no significant protection from liver and spleen enlargement | decrease in intestinal egg counts (S. mansoni [1]; mice, ergotamine 95 mg/kg twice a day, praziquantel 50 mg/kg once a day, i.p., versus vehicle control): 99% | modulation of Sm.5HTR receptor activity (Sm.5HTR [2]; doses that would convey an antiparasitic effect, FIGS. 10A and E): did not reveal any modulation of receptor activity | % of worm burden found in the liver (S. mansoni [3]): 68.8±14.1%

CC[C@@H](CO)NC(=O)[C@@H]1C=C2c3cccc4[nH]cc(c34)C[C@H]2N(C)C1 [methylergometrine]
Emax (Sm.5HTR [4]): 50 ± 17% | % of worm burden found in the liver (S. mansoni [3]): 50.6±28.5%

CCN(CC)C(=O)N[C@H]1C=C2c3cccc4[nH]cc(c34)C[C@H]2N(C)C1 [lisuride]
% of worm burden found in the liver (S. mansoni [3]): no difference relative to control animals

COc1cc2c(cc1OC)[C@@H]1Cc3ccc(OC)c(OC)c3CN1CC2 [rotundine]
IC50 [5]: ≤ 1000 nM | selectivity Sm.5HTR versus Hs.5HT7R (IC50 (Hs.5HT7R)/IC50 (Sm.5HTR)), in words (Sm.5HTR [2]; antagonism of 5-HT evoked cAMP, FIGS. 7, 12, 13): clear selectivity for Sm.5HTR | potency (IC50) at Sm.5HTR, lower right quadrant of FIG. 13 (Sm.5HTR [2]; inhibition of cAMP generation): sub-μM potency | IC50 (Sm.5HTR [2]; read-out: IC50, antagonism of 5-HT evoked cAMP generation at Sm.5HTR, 5-HT at EC80, F22 sensor, IBMX): 701 ± 207 nM | inhibition of 5-HT evoked cAMP generation through Sm.5HTRL (Sm.5HTRL): inhibited 5-HT evoked cAMP generation through Sm.5HTRL | effect on Hs.5HT7 (Hs.5HT7R; concentrations up to 50 μM): lacking any effect | potency (IC50) at Hs.5HT7R, lower right quadrant of FIG. 13 (Hs.5HT7R; inhibition of cAMP generation): supra-μM potency | effect on 5-HT stimulated movement of adult worms (adult schistosomes; 5-HT 100 μM, male and female worms (FIG. 15G-I)): inhibited the 5-HT evoked increases in worm movement | effect on basal movement of adult worms (adult schistosomes; no 5-HT, male and female worms (FIG. 15D-F)): markedly inhibited worm movements at rest

From patent US10426772B2, “Use of ergot alkaloids as an anthelmintic agent” (priority 2016, dated 2019)
